Patent publication US10183019B2, “Treatment of cancer with dihydropyrazino-pyrazines” (Signal Pharmaceuticals, LLC, priority 2013, dated 2019)

How the values were obtained:
Type in all cases: cell-based
[1] = system: patient-derived GBM cell line 250; assay: Gliomasphere Formation Assay; details: cell line 250, Recurrent, MGMT Unkn/Highly Expressed; 50% sphere formation vs DMSO control
Method: (§1) Primary patient-derived GBM tumor samples were dissociated and plated under culture conditions (i.e. DMEM/F12 medium supplemented with B27, 20 ng/mL bFGF, 50 ng/mL EGF, penicillin/streptomycin, L-glutamine and 5 ug/mL heparin) that produce gliomaspheres. Cells were plated at a density of 50 cells per well and allowed to acclimate overnight at 37° C. The Dihydropyrazino-Pyrazine Compounds were added to the cultures on Day 2 and replenished every 7 days. EGF and FGF were also replenished every 7 days. The cells were fixed with PFA/methanol when the smallest sphere was greater than 60 microns, typically 3-5 weeks. The cells were fixed with PFA/methanol and the next day assessed for cell number, using for example, SYTO-9 fluorescent DNA dye. Plates were read 48 h later with a laser scanning imager.

[2] = system: patient-derived GBM cell line 350; assay: Gliomasphere Formation Assay; details: cell line 350, Recurrent; 50% sphere formation vs DMSO control
Method: as §1

[3] = system: patient-derived GBM cell line 206; assay: Gliomasphere Formation Assay; details: cell line 206, Recurrent, MGMT Unkn/Highly Expressed; 50% sphere formation vs DMSO control
Method: as §1

[4] = system: patient-derived GBM cell line 309; assay: Gliomasphere Formation Assay; details: cell line 309, Recurrent, MGMT ND; 50% sphere formation vs DMSO control
Method: as §1

[5] = system: patient-derived GBM cell line 282; assay: Gliomasphere Formation Assay; details: cell line 282, Primary, MGMT ND; 50% sphere formation vs DMSO control
Method: as §1

[6] = system: patient-derived GBM cell line 296; assay: Gliomasphere Formation Assay; details: cell line 296, Recurrent, MGMT status −; 50% sphere formation vs DMSO control
Method: as §1

[7] = system: patient-derived GBM cell line 217; assay: Gliomasphere Formation Assay; details: cell line 217, Primary; 50% sphere formation vs DMSO control
Method: as §1

[8] = system: patient-derived GBM cell line 245; assay: Gliomasphere Formation Assay; details: cell line 245, Recurrent; 50% sphere formation vs DMSO control
Method: as §1

[9] = system: patient-derived GBM cell line 206; assay: Gliomasphere Cell Number Assay; details: cell line 206, Recurrent, MGMT Unkn/Highly Expressed; 50% cell numbers vs DMSO control, Day 2 to Day 9; read-out: IC50 Cell Survival
Method: (§2) Gliomasphere Cell Number Assay. Primary patient-derived GBM tumor samples were dissociated and plated under culture conditions that produce gliomaspheres (i.e. DMEM/F12 medium supplemented with B27, 20 ng/mL bFGF, 50 ng/mL EGF, penicillin/streptomycin, L-glutamine and 5 ug/mL heparin). Cells were plated at a density of 5000 cells/well and allowed to acclimate overnight at 37° C. The Dihydropyrazino-Pyrazine Compounds were added to the cultures on Day 2 and cells were kept in culture until Day 9. On Day 9, the cells were fixed with PFA/methanol and the next day assessed for cell number, using for example, SYTO-9 fluorescent DNA dye. Plates were read 48 h later with a laser scanning imager.

[10] = system: patient-derived GBM cell line 277; assay: Gliomasphere Cell Number Assay; details: cell line 277, Secondary/Recurrent; 50% cell numbers vs DMSO control, Day 2 to Day 9; read-out: IC50 Cell Survival
Method: as §2

[11] = system: patient-derived GBM cell line 371; assay: Gliomasphere Cell Number Assay; details: cell line 371, Recurrent, MGMT status −; 50% cell numbers vs DMSO control, Day 2 to Day 9; read-out: IC50 Cell Survival
Method: as §2

[12] = system: patient-derived GBM cell line 206; assay: Sphere-Reformation Assay; details: 7 day pre-treatment, various doses
Method: (§3) Tumorsphere lines 206, 217, 254 and 282 in FIGS. 1A, 1B, 1C and 1D, respectively, were dissociated and plated as single cells at a density of 50,000 cells/ml of tumorsphere media in a total of 10 mL per T-25 cell culture flask and 5 flasks per cell line. […] 60 wells were plated from each flask of cells. Tumorspheres were allowed to grow until they achieved at least 60 microns in diameter before they were counted. The percentage of tumorsphere formation was calculated as the number of tumorspheres counted divided by the number of cells seeded times the plating efficiency of the control.
(§4) Patient-derived GBM cell lines cultured under tumorsphere culture conditions maintain a highly heterogenous population of cells, including both sphere-initiating cells, as well as more committed progenitor cells with limited proliferative capabilities. To determine if Compound 1 specifically targets the sphere-initiating cell population, we performed a sphere re-formation assay after Compound 1 pre-treatment. […] Compound 1 may target both the sphere-initiating cells as well as the more committed progenitor cells thus the percentage of sphere-initiating cells in the culture remains constant after Compound 1 treatment.

[13] = system: patient-derived GBM cell line 254; assay: Sphere-Reformation Assay
Method: as §3, §4

[14] = system: patient-derived GBM cell line 282; assay: Sphere-Reformation Assay; details: 7 day pre-treatment, various doses (100 nM and 500 nM not tested)
Method: as §3, §4

[15] = system: patient-derived GBM cell line 217; assay: Sphere-Reformation Assay; details: 7 day pre-treatment, various doses
Method: as §3, §4

[16] = system: patient-derived GBM cell line 206; assay: Combination effect of Compound 1 and TMZ on cell survival (fractional product); details: 168 h, 7 days, read-out: % Actual inh.
From the text: (§5) TMZ is an alkylating agent that delivers a methyl group to the purine bases of DNA (O^6-guanine; N^7-guanine and N^3-adenine). The cytotoxic lesion, O^6-methylguanine (O^6-MeG), caused by TMZ can be directly removed by methylguanine methyltransferase (MGMT) via direct repair and can also activate mechanisms of mismatch repair (MMR). Futile cycles of MMR lead to the formation of double-stranded DNA breaks and activation of the DNA-PK mediated mechanisms of double-stranded break repair.
(§6) Tumorspheres grown under tumorsphere culture conditions were harvested, dissociated into single cells, and plated at 5,000 cells/well in 96-well plates. […] When the value of the column % actual inhibition divided by % inhibition calculated based on summation is >1=synergism, ˜1=summation, <1=antagonism.

[17] = system: patient-derived GBM cell line 217; assay: as above; details: 168 h, Cmpd 1 100 nM alone, 7 days, read-out: % Actual inh.
From the text: as §5, §6

With CCN1C(=O)CNc2ncc(-c3ccc(-c4nc[nH]n4)nc3C)nc21 [Compound 1, 1-ethyl-7-(2-methyl-6-(1H-1,2,4-triazol-3-yl)pyridin-3-yl)-3,4-dihydropyrazino[2,3-b]pyrazin-2(1H)-one] the IC50 [1] was 39.6 nM, the IC50 [2] was 39.3 nM and the IC50 [3] was 142 nM. The IC50 [4] was 159 nM, the IC50 [5] was 25.8 nM and the IC50 [6] was 544 nM. For the same molecule, the IC50 [7] was 42.1 nM, the IC50 [8] was 22.6 nM and the IC50 [9] was 163 nM. The IC50 [10] was 107 nM, the IC50 [11] was 368 nM and the “number of spheres formed by cells that survived pre-treatment vs control untreated cells” value (“number … vs control untreated cells” for short) [12] was “not significantly different”. For the same molecule, the “tumorsphere re-formation after pre-treatment” value ([13]; 500 nM, 7 days) was “No tumorspheres re-formed”, the “number … vs control untreated cells” value ([13]; 7 day pre-treatment, various doses) was “not significantly different” and the “number … vs control untreated cells” value [14] was “not significantly different”. The “number … vs control untreated cells” value [15] was “not significantly different”, the inhibition at 0.05 µM ([16]; Cmpd 1 50 nM alone) was 10.6% and the inhibition at 0.1 µM ([16]; Cmpd 1 100 nM alone) was 23.1%. The inhibition at 0.5 µM ([16]; Cmpd 1 500 nM alone) was 65.8% and the inhibition at 0.1 µM [17] was 51%.
